According to patent US8129417B2, “Substituted octahydrocyclopenta[C]pyrrol-4-amines as calcium channel blockers” (Abbott Laboratories, priority 2008, dated 2012):

Molecular target: human Cav2.2 (Homo sapiens, UniProt Q00975)
Assay: Assessment of calcium channel activity using FLIPR (Ca2+ influx in IMR32 cells)
Format: cell-based
Settings: 60 minute pre-incubation with compound, 2 μM nifedipine, depolarized with 80 mM KCl
Summary of the method: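 IC50 came from sigmoidal non-linear regression of percent inhibition, relative to uninhibited activity, across compound concentrations. Calcium influx was measured by FLIPR in IMR32 cells plated at 1-1.2×10^5 cells/well and cultured 48 h at 37 °C.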

human Cav2.2, sequence (Q00975 whole entry): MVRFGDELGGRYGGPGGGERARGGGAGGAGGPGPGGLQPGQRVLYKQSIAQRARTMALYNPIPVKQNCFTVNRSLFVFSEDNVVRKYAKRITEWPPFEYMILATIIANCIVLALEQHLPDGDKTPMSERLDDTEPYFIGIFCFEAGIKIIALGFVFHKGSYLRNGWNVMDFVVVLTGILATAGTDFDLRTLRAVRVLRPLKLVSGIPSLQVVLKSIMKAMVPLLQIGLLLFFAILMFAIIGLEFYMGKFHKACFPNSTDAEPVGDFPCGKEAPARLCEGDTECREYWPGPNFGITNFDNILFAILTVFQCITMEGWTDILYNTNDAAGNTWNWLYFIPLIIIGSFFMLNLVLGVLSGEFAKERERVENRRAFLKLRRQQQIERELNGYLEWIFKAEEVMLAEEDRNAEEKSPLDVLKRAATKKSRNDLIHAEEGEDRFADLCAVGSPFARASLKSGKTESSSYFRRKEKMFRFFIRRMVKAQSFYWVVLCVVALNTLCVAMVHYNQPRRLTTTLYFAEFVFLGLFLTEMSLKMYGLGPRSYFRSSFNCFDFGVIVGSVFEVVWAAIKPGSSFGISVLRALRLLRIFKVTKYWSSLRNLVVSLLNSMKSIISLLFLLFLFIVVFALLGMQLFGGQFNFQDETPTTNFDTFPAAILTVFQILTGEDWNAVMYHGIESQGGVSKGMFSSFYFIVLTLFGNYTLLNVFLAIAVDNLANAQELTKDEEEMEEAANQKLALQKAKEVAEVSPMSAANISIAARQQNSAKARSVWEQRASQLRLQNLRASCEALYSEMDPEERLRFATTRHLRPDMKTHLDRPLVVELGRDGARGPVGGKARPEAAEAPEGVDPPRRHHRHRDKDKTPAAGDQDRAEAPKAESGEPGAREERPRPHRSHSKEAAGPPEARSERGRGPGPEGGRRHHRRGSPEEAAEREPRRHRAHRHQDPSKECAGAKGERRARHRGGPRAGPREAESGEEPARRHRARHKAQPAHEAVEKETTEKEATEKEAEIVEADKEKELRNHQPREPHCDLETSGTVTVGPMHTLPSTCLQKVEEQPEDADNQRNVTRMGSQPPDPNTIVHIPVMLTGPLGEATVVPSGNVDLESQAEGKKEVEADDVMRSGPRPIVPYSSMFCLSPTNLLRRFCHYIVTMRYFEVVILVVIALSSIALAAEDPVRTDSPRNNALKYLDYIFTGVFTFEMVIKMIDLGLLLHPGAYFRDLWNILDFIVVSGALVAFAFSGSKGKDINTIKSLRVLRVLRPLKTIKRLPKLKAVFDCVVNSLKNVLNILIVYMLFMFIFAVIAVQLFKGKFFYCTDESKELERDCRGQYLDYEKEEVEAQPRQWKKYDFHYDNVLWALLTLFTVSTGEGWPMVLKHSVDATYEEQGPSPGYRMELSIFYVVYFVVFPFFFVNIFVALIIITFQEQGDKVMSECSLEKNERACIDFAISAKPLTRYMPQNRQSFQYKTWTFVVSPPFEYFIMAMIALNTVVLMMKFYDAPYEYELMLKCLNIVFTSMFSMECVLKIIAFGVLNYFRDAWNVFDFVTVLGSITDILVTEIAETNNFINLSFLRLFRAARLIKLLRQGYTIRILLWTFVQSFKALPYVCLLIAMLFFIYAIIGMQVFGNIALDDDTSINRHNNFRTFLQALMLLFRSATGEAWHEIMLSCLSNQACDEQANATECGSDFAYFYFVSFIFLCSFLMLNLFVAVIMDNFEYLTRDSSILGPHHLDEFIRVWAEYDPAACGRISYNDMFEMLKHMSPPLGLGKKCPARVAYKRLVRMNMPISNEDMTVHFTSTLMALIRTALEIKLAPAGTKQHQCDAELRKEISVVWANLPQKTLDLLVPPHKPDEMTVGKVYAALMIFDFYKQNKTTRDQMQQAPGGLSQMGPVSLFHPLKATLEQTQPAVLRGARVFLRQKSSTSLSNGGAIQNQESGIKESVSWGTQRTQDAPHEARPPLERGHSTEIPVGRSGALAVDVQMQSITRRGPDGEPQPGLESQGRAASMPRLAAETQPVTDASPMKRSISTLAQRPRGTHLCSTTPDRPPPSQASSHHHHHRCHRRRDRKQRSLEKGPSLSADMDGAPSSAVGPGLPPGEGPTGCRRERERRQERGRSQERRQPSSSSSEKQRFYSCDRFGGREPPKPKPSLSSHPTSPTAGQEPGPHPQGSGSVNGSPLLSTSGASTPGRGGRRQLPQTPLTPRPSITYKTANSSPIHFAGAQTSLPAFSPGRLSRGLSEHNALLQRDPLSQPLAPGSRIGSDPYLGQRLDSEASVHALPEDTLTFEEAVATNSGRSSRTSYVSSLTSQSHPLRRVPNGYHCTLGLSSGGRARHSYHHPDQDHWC
human Cav2.2, sequence (P54289 25-946 partner limits assumed): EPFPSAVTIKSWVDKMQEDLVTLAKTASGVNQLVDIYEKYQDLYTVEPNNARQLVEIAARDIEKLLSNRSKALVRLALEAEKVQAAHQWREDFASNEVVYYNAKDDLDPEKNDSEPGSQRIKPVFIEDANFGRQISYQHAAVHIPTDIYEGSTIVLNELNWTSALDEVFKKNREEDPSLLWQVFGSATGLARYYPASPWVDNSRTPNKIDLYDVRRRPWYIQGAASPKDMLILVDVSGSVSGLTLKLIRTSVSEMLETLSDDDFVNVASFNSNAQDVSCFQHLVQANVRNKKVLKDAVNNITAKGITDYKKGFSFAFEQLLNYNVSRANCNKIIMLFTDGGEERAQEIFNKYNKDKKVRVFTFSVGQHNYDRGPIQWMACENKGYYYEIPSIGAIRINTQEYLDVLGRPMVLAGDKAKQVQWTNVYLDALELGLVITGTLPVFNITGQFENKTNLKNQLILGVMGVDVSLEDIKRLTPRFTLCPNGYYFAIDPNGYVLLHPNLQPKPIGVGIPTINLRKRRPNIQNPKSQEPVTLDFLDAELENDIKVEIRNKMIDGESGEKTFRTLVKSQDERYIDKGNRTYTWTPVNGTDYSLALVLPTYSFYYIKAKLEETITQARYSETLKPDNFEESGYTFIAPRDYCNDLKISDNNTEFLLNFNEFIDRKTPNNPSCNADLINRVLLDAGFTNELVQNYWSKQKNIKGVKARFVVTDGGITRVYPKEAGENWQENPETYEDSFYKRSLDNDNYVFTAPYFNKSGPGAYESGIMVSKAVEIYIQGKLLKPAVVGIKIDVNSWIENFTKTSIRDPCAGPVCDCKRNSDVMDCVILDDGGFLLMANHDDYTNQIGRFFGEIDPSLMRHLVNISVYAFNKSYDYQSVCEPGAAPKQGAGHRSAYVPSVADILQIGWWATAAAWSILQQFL
human Cav2.2, sequence (P54289 947-1103 partner limits assumed): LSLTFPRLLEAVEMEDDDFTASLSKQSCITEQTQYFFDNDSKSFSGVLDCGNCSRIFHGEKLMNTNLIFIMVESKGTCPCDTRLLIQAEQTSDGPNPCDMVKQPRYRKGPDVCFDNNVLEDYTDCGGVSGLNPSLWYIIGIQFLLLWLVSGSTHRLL
human Cav2.2, sequence (P54284 whole entry partner): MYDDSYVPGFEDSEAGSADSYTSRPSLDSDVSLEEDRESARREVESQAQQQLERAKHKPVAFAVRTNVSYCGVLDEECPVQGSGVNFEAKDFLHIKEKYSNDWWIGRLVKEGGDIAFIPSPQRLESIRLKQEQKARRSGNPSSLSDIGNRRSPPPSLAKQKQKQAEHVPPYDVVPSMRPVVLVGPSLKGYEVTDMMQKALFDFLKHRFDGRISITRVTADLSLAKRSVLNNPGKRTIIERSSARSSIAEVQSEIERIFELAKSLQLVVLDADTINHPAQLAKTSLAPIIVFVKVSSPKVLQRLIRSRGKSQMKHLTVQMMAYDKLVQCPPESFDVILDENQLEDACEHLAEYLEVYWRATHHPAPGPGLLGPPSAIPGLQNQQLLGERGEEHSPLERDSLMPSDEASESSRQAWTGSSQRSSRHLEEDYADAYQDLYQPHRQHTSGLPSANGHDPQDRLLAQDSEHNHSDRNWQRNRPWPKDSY

| IC50 | SMILES |
| --- | --- |
| 1310 nM | CCCCN[C@@H](CC(C)(C)C)C(=O)N[C@H]1CC[C@@H]2CN(S(=O)(=O)c3ccc(C(F)(F)F)cc3)C[C@@H]21 [Example 476, N^2-butyl-4-methyl-N^1-((3aR,4S,6aS)-2-{[4-(trifluoromethyl)phenyl]sulfonyl}octahydrocyclopenta[c]pyrrol-4-yl)-L-leucinamide] |
| 1880 nM | CCN[C@@H](CC(C)(C)C)C(=O)N[C@H]1CC[C@@H]2CN(S(=O)(=O)c3ccc(C(F)(F)F)cc3)C[C@@H]21 [Example 477, N^2-ethyl-4-methyl-N^1-((3aR,4S,6aS)-2-{[4-(trifluoromethyl)phenyl]sulfonyl}octahydrocyclopenta[c]pyrrol-4-yl)-L-leucinamide] |
| 2280 nM | CCC[C@H](NC(C)C)C(=O)N[C@H]1CC[C@@H]2CN(S(=O)(=O)c3ccc(C(F)(F)F)cc3)C[C@@H]21 [Example 481, N^2-isopropyl-N^1-((3aR,4S,6aS)-2-{[4-(trifluoromethyl)phenyl]sulfonyl}octahydrocyclopenta[c]pyrrol-4-yl)-L-norvalinamide] |
| 1970 nM | CCC[C@H](NC(C)C)C(=O)N[C@@H]1CC[C@H]2CN(S(=O)(=O)c3ccc(C(F)(F)F)cc3)C[C@H]21 [Example 482, N^2-isopropyl-N^1-((3aS,4R,6aR)-2-{[4-(trifluoromethyl)phenyl]sulfonyl}octahydrocyclopenta[c]pyrrol-4-yl)-L-norvalinamide] |
| 490 nM | CCC[C@H](NC(C)C)C(=O)N[C@H]1CC[C@@H]2CN(S(=O)(=O)c3cccc(C(F)(F)F)c3)C[C@@H]21 [Example 483, N^2-isopropyl-N^1-((3aR,4S,6aS)-2-{[3-(trifluoromethyl)phenyl]sulfonyl}octahydrocyclopenta[c]pyrrol-4-yl)-L-norvalinamide] |
| 970 nM | CCC[C@H](NC(C)C)C(=O)N[C@@H]1CC[C@H]2CN(S(=O)(=O)c3cccc(C(F)(F)F)c3)C[C@H]21 [Example 484, N^2-isopropyl-N^1-((3aS,4R,6aR)-2-{[3-(trifluoromethyl)phenyl]sulfonyl}octahydrocyclopenta[c]pyrrol-4-yl)-L-norvalinamide] |
| 1210 nM | CC(C)N[C@@H](CC(C)(C)C)C(=O)N[C@H]1CC[C@@H]2CN(S(=O)(=O)c3cc(C(F)(F)F)ccc3Cl)C[C@@H]21 [Example 486, N^1-((3aR,4S,6aS)-2-{[2-chloro-5-(trifluoromethyl)phenyl]sulfonyl}octahydrocyclopenta[c]pyrrol-4-yl)-N^2-isopropyl-4-methyl-L-leucinamide] |
| 560 nM | CC(C)N[C@@H](CC(C)(C)C)C(=O)N[C@H]1CC[C@@H]2CN(S(=O)(=O)c3ccc(C(F)(F)F)cc3Cl)C[C@@H]21 [Example 487, N^1-((3aR,4S,6aS)-2-{[2-chloro-4-(trifluoromethyl)phenyl]sulfonyl}octahydrocyclopenta[c]pyrrol-4-yl)-N^2-isopropyl-4-methyl-L-leucinamide] |
| 3120 nM | CC(C)N[C@@H](CC(C)(C)C)C(=O)N[C@H]1CC[C@@H]2CN(c3ccc(C(F)(F)F)cn3)C[C@@H]21 [Example 490, N^2-isopropyl-4-methyl-N^1-{(3aR,4S,6aS)-2-[5-(trifluoromethyl)pyridin-2-yl]octahydrocyclopenta[c]pyrrol-4-yl}-L-leucinamide] |
| 260 nM | CC(C)N[C@@H](CC(C)(C)C)C(=O)N[C@H]1CC[C@@H]2CN(c3cccc(C(F)(F)F)n3)C[C@@H]21 [Example 491, N^2-isopropyl-4-methyl-N^1-{(3aR,4S,6aS)-2-[6-(trifluoromethyl)pyridin-2-yl]octahydrocyclopenta[c]pyrrol-4-yl}-L-leucinamide] |
| 2000 nM | CC(C)N[C@@H](CC(C)(C)C)C(=O)N1C[C@H]2CC[C@H](NC(=O)C(c3ccc(F)cc3)c3ccc(F)cc3)[C@H]2C1 [Example 492, 2,2-bis(4-fluorophenyl)-N-[(3aR,4S,6aS)-2-(N-isopropyl-4-methyl-L-leucyl)octahydrocyclopenta[c]pyrrol-4-yl]acetamide] |
| 530 nM | CC(C)C[C@H](NC(C)C)C(=O)N[C@H]1CC[C@@H]2CN(S(=O)(=O)c3cccc(C(F)(F)F)c3)C[C@@H]21 [Example 496, N^2-isopropyl-N^1-((3aR,4S,6aS)-2-{[3-(trifluoromethyl)phenyl]sulfonyl}octahydrocyclopenta[c]pyrrol-4-yl)-L-leucinamide] |
| 570 nM | CC(C)C[C@@H](C(=O)N[C@H]1CC[C@@H]2CN(S(=O)(=O)c3cccc(C(F)(F)F)c3)C[C@@H]21)N(C)C [Example 497, N^2,N^2-dimethyl-N^1-((3aR,4S,6aS)-2-{[3-(trifluoromethyl)phenyl]sulfonyl}octahydrocyclopenta[c]pyrrol-4-yl)-L-leucinamide] |
| 2700 nM | CC(C)(C)C[C@H](NC1CC1)C(=O)N[C@H]1CC[C@@H]2CN(S(=O)(=O)c3ccc(C(F)(F)F)cc3)C[C@@H]21 [Example 499, N^2-cyclopropyl-4-methyl-N^1-((3aR,4S,6aS)-2-{[4-(trifluoromethyl)phenyl]sulfonyl}octahydrocyclopenta[c]pyrrol-4-yl)-L-leucinamide] |
| 820 nM | CC(C)(C)C[C@H](NC1CCCC1)C(=O)N[C@H]1CC[C@@H]2CN(S(=O)(=O)c3ccc(C(F)(F)F)cc3)C[C@@H]21 [Example 501, N^2-cyclopentyl-4-methyl-N^1-((3aR,4S,6aS)-2-{[4-(trifluoromethyl)phenyl]sulfonyl}octahydrocyclopenta[c]pyrrol-4-yl)-L-leucinamide] |
| 970 nM | CC(C)(C)C[C@H](NC1CCCCC1)C(=O)N[C@H]1CC[C@@H]2CN(S(=O)(=O)c3ccc(C(F)(F)F)cc3)C[C@@H]21 [Example 502, N^2-cyclohexyl-4-methyl-N^1-((3aR,4S,6aS)-2-{[4-(trifluoromethyl)phenyl]sulfonyl}octahydrocyclopenta[c]pyrrol-4-yl)-L-leucinamide] |
| 890 nM | CCC(CC)N[C@@H](CC(C)(C)C)C(=O)N[C@H]1CC[C@@H]2CN(S(=O)(=O)c3ccc(C(F)(F)F)cc3)C[C@@H]21 [Example 503, N^2-(1-ethylpropyl)-4-methyl-N^1-((3aR,4S,6aS)-2-{[4-(trifluoromethyl)phenyl]sulfonyl}octahydrocyclopenta[c]pyrrol-4-yl)-L-leucinamide] |
| 910 nM | CC(C)(C)C[C@H](NC1CCC1)C(=O)N[C@H]1CC[C@@H]2CN(S(=O)(=O)c3ccc(C(F)(F)F)cc3)C[C@@H]21 [Example 504, N^2-cyclobutyl-4-methyl-N^1-((3aR,4S,6aS)-2-{[4-(trifluoromethyl)phenyl]sulfonyl}octahydrocyclopenta[c]pyrrol-4-yl)-L-leucinamide] |
| 870 nM | CCC[C@H](NC1CCCCC1)C(=O)N[C@H]1CC[C@@H]2CN(S(=O)(=O)c3ccc(C(F)(F)F)cc3)C[C@@H]21 [Example 507, N^2-cyclohexyl-N^1-((3aR,4S,6aS)-2-{[4-(trifluoromethyl)phenyl]sulfonyl}octahydrocyclopenta[c]pyrrol-4-yl)-L-norvalinamide] |
| 8600 nM | CC(C)(C)C[C@H](NC1CCCC1)C(=O)N[C@H]1CC[C@@H]2CN(C(=O)[C@H](CC(C)(C)C)NC3CCCC3)C[C@@H]21 [Example 508, N^2-cyclopentyl-N^1-[(3aR,4S,6aS)-2-(N-cyclopentyl-4-methyl-L-leucyl)octahydrocyclopenta[c]pyrrol-4-yl]-4-methyl-L-leucinamide] |
| 1680 nM | CC(C)C[C@@H](C(=O)N[C@@H]1CC[C@H]2CN(Cc3ccccc3)C[C@H]21)N(C)CC(C)(C)C [Example 510, N^1-[(3aS,4R,6aR)-2-benzyloctahydrocyclopenta[c]pyrrol-4-yl]-N^2-methyl-N^2-neopentyl-L-leucinamide] |
| 2120 nM | CC(C)C[C@@H](C(=O)N[C@@H]1CC[C@H]2CN(Cc3ccccc3)C[C@H]21)N(C)CCC(C)(C)C [Example 511, N^1-[(3aS,4R,6aR)-2-benzyloctahydrocyclopenta[c]pyrrol-4-yl]-N^2-(3,3-dimethylbutyl)-N^2-methyl-L-leucinamide] |
| 470 nM | CC(C)C[C@@H](C(=O)N[C@@H]1CC[C@H]2CN(S(=O)(=O)c3cccc(C(F)(F)F)c3)C[C@H]21)N(C)C [Example 512, N^2,N^2-dimethyl-N^1-((3aS,4R,6aR)-2-{[3-(trifluoromethyl)phenyl]sulfonyl}octahydrocyclopenta[c]pyrrol-4-yl)-L-leucinamide] |
| 2150 nM | CC(C)C[C@@H](C(=O)N[C@@H]1CC[C@H]2CN(Cc3ccccc3)C[C@H]21)N(C)Cc1ccc(F)cc1 [Example 513, N^1-[(3aS,4R,6aR)-2-benzyloctahydrocyclopenta[c]pyrrol-4-yl]-N^2-(4-fluorobenzyl)-N^2-methyl-L-leucinamide] |
| 3170 nM | CC(C)[C@@H](CC(=O)N[C@H]1CC[C@@H]2CN(S(=O)(=O)c3cccc(C(F)(F)F)c3)C[C@@H]21)NS(C)(=O)=O [Example 515, (3R)-4-methyl-3-[(methylsulfonyl)amino]-N-((3aR,4S,6aS)-2-{[3-(trifluoromethyl)phenyl]sulfonyl}octahydrocyclopenta[c]pyrrol-4-yl)pentanamide] |
| 2990 nM | CC(C)C[C@H](NS(C)(=O)=O)C(=O)N[C@H]1CC[C@@H]2CN(Cc3cccc(C(F)(F)F)c3)C[C@@H]21 [Example 516, N^2-(methylsulfonyl)-N^1-{(3aR,4S,6aS)-2-[3-(trifluoromethyl)benzyl]octahydrocyclopenta[c]pyrrol-4-yl}-L-leucinamide] |
| 4450 nM | CC(C)C[C@@H](NS(C)(=O)=O)C(=O)N[C@H]1CC[C@@H]2CN(Cc3cccc(C(F)(F)F)c3)C[C@@H]21 [Example 517, N^2-(methylsulfonyl)-N^1-{(3aR,4S,6aS)-2-[3-(trifluoromethyl)benzyl]octahydrocyclopenta[c]pyrrol-4-yl}-D-leucinamide] |
| 810 nM | CCN([C@@H](CC(C)C)C(=O)N[C@H]1CC[C@@H]2CN(Cc3cccc(C(F)(F)F)c3)C[C@@H]21)S(C)(=O)=O [Example 518, N^2-ethyl-N^2-(methylsulfonyl)-N^1-{(3aR,4S,6aS)-2-[3-(trifluoromethyl)benzyl]octahydrocyclopenta[c]pyrrol-4-yl}-L-leucinamide] |
